Test results published in US12110295B2, “WD40 repeat domain protein 5 (WDR5) degradation/disruption compounds and methods of use” (Icahn School of Medicine at Mount Sinai, priority 2018, dated 2024).

target: WDR5 (Homo sapiens, UniProt P61964); assay: Screening of putative WDR5 degraders by Western blot in MV4;11 and/or MIAPACA2 cells; type: cell-based; set-up: After WDR5 degrader treatment, cells were collected and lysed; endogenous in cells; host or cells: MV4;11 and/or MIAPACA2; settings: summary of screening, FIGS. 6-10
Summary of the method: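 MV4;11 (1×10^6/well) or MIAPACA2 (1×10^5/well) cells treated 18 h with compound at paired doses between 0.1 and 10 μM, DMSO as control. Total lysates immunoblotted for WDR5 with vinculin, tubulin or GAPDH loading controls; fluorescent secondary detection.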

Row | SMILES | effective degradation of WDR5 in MV4;11 and/or MIAPACA2 cells
1 | Cc1ncsc1-c1ccc(CNC(=O)[C@@H]2C[C@@H](O)CN2C(=O)[C@@H](NC(=O)CCOCCC(=O)NCCN2CCN(Cc3ccc(F)c(-c4ccc(N5C[C@@H](C)N(C)[C@@H](C)C5)c(NC(=O)c5c[nH]c(=O)cc5C(F)(F)F)c4)c3)CC2)C(C)(C)C)cc1 [XF078-2, N-(2′-fluoro-5′-((4-(2-(3-(3-(((S)-1-((2S,4R)-4-hydroxy-2-((4-(4-methylthiazol-5-yl)benzyl)carbamoyl)pyrrolidin-1-yl)-3,3-dimethyl-1-oxobutan-2-yl)amino)-3-oxopropoxy)propanamido)ethyl)piperazin-1-yl)methyl)-4-((3S,5R)-3,4,5-trimethylpiperazin-1-yl)-[1,1′-biphenyl]-3-yl)-6-oxo-4-(trifluoromethyl)-1,6-dihydropyridine-3-carboxamide] | able to effectively degrade WDR5
2 | Cc1ncsc1-c1ccc(CNC(=O)[C@@H]2C[C@@H](O)CN2C(=O)[C@@H](NC(=O)CCCCCCCNC(=O)c2ccc(-c3ccc(N4C[C@@H](C)N(C)[C@@H](C)C4)c(NC(=O)c4c[nH]c(=O)cc4C(F)(F)F)c3)c(F)c2)C(C)(C)C)cc1 [XF056-171, N-(2′-fluoro-4′-((8-(((S)-1-((2S,4R)-4-hydroxy-2-((4-(4-methylthiazol-5-yl)benzyl)carbamoyl)pyrrolidin-1-yl)-3,3-dimethyl-1-oxobutan-2-yl)amino)-8-oxooctyl)carbamoyl)-4-((3R,5S)-3,4,5-trimethylpiperazin-1-yl)-[1,1′-biphenyl]-3-yl)-6-oxo-4-(trifluoromethyl)-1,6-dihydropyridine-3-carboxamide] | able to effectively degrade WDR5
3 | Cc1ncsc1-c1ccc(CNC(=O)[C@@H]2C[C@@H](O)CN2C(=O)[C@@H](NC(=O)COCCOCC(=O)N2CCN(Cc3cnc(N4CC=C(c5cc(NC(=O)c6c[nH]c(=O)cc6C(F)(F)F)c(N6C[C@@H](C)N(C)[C@@H](C)C6)cc5F)CC4)nc3)CC2)C(C)(C)C)cc1 [XF078-134, N-(4-fluoro-5-(1-(5-((4-(2-(2-(2-(((S)-1-((2S,4R)-4-hydroxy-2-((4-(4-methylthiazol-5-yl)benzyl)carbamoyl)pyrrolidin-1-yl)-3,3-dimethyl-1-oxobutan-2-yl)amino)-2-oxoethoxy)ethoxy)acetyl)piperazin-1-yl)methyl)pyrimidin-2-yl)-1,2,3,6-tetrahydropyridin-4-yl)-2-((3S,5R)-3,4,5-trimethylpiperazin-1-yl)phenyl)-6-oxo-4-(trifluoromethyl)-1,6-dihydropyridine-3-carboxamide] | able to effectively degrade WDR5
4 | C[C@@H]1CN(c2ccc(-c3cc(CN4CCN(CCNC(=O)CCOCCNc5cccc6c5C(=O)N(C5CCC(=O)NC5=O)C6=O)CC4)ccc3F)cc2NC(=O)c2c[nH]c(=O)cc2C(F)(F)F)C[C@H](C)N1C (stereo partly drawn) [XF078-25, N-(5′-((4-(2-(3-(2-((2-(2,6-dioxopiperidin-3-yl)-1,3-dioxoisoindolin-4-yl)amino)ethoxy)propanamido)ethyl)piperazin-1-yl)methyl)-2′-fluoro-4-((3S,5R)-3,4,5-trimethylpiperazin-1-yl)-[1,1′-biphenyl]-3-yl)-6-oxo-4-(trifluoromethyl)-1,6-dihydropyridine-3-carboxamide] | able to effectively degrade WDR5
5 | Cc1ncsc1-c1ccc(CNC(=O)[C@@H]2C[C@@H](O)CN2C(=O)[C@@H](NC(=O)CCOCCOCCOCCOCCC(=O)N2CCN(Cc3cnc(N4CC=C(c5cc(NC(=O)c6c[nH]c(=O)cc6C(F)(F)F)c(N6C[C@@H](C)N(C)[C@@H](C)C6)cc5F)CC4)nc3)CC2)C(C)(C)C)cc1 [XF078-138, N-(4-fluoro-5-(1-(5-((4-((S)-18-((2S,4R)-4-hydroxy-2-((4-(4-methylthiazol-5-yl)benzyl)carbamoyl)pyrrolidine-1-carbonyl)-19,19-dimethyl-16-oxo-4,7,10,13-tetraoxa-17-azaicosanoyl)piperazin-1-yl)methyl)pyrimidin-2-yl)-1,2,3,6-tetrahydropyridin-4-yl)-2-((3S,5R)-3,4,5-trimethylpiperazin-1-yl)phenyl)-6-oxo-4-(trifluoromethyl)-1,6-dihydropyridine-3-carboxamide] | able to effectively degrade WDR5
6 | Cc1ncsc1-c1ccc(CNC(=O)[C@@H]2C[C@@H](O)CN2C(=O)[C@@H](NC(=O)CCCCC(=O)N2CCN(Cc3cnc(N4CC=C(c5cc(NC(=O)c6c[nH]c(=O)cc6C(F)(F)F)c(N6C[C@@H](C)N(C)[C@@H](C)C6)cc5F)CC4)nc3)CC2)C(C)(C)C)cc1 [XF078-143, N-(4-fluoro-5-(1-(5-((4-(6-(((S)-1-((2S,4R)-4-hydroxy-2-((4-(4-methylthiazol-5-yl)benzyl)carbamoyl)pyrrolidin-1-yl)-3,3-dimethyl-1-oxobutan-2-yl)amino)-6-oxohexanoyl)piperazin-1-yl)methyl)pyrimidin-2-yl)-1,2,3,6-tetrahydropyridin-4-yl)-2-((3S,5R)-3,4,5-trimethylpiperazin-1-yl)phenyl)-6-oxo-4-(trifluoromethyl)-1,6-dihydropyridine-3-carboxamide] | able to effectively degrade WDR5
7 | Cc1ncsc1-c1ccc(CNC(=O)[C@@H]2C[C@@H](O)CN2C(=O)[C@@H](NC(=O)COCCOCCOCC(=O)N2CCN(c3ncc(-c4cc(NC(=O)c5ccc(F)cc5C(F)(F)F)c(N5C[C@@H](C)N(C)[C@@H](C)C5)cc4F)cn3)CC2)C(C)(C)C)cc1 [XF078-103, (2S,4R)-1-((S)-2-(tert-butyl)-14-(4-(5-(2-fluoro-5-(4-fluoro-2-(trifluoromethyl)benzamido)-4-((3S,5R)-3,4,5-trimethylpiperazin-1-yl)phenyl)pyrimidin-2-yl)piperazin-1-yl)-4,14-dioxo-6,9,12-trioxa-3-azatetradecanoyl)-4-hydroxy-N-(4-(4-methylthiazol-5-yl)benzyl)pyrrolidine-2-carboxamide] | able to effectively degrade WDR5
8 | Cc1ncsc1-c1ccc(CNC(=O)[C@@H]2C[C@@H](O)CN2C(=O)[C@@H](NC(=O)CCOCCC(=O)N2CCN(Cc3cnc(N4CC=C(c5cc(NC(=O)c6c[nH]c(=O)cc6C(F)(F)F)c(N6C[C@@H](C)N(C)[C@@H](C)C6)cc5F)CC4)nc3)CC2)C(C)(C)C)cc1 [XF078-133, N-(4-fluoro-5-(1-(5-((4-(3-(3-(((S)-1-((2S,4R)-4-hydroxy-2-((4-(4-methylthiazol-5-yl)benzyl)carbamoyl)pyrrolidin-1-yl)-3,3-dimethyl-1-oxobutan-2-yl)amino)-3-oxopropoxy)propanoyl)piperazin-1-yl)methyl)pyrimidin-2-yl)-1,2,3,6-tetrahydropyridin-4-yl)-2-((3S,5R)-3,4,5-trimethylpiperazin-1-yl)phenyl)-6-oxo-4-(trifluoromethyl)-1,6-dihydropyridine-3-carboxamide] | able to effectively degrade WDR5
9 | Cc1ncsc1-c1ccc(CNC(=O)[C@@H]2C[C@@H](O)CN2C(=O)[C@@H](NC(=O)CCCC(=O)N2CCN(Cc3cnc(N4CC=C(c5cc(NC(=O)c6c[nH]c(=O)cc6C(F)(F)F)c(N6C[C@@H](C)N(C)[C@@H](C)C6)cc5F)CC4)nc3)CC2)C(C)(C)C)cc1 [XF078-142, N-(4-fluoro-5-(1-(5-((4-(5-(((S)-1-((2S,4R)-4-hydroxy-2-((4-(4-methylthiazol-5-yl)benzyl)carbamoyl)pyrrolidin-1-yl)-3,3-dimethyl-1-oxobutan-2-yl)amino)-5-oxopentanoyl)piperazin-1-yl)methyl)pyrimidin-2-yl)-1,2,3,6-tetrahydropyridin-4-yl)-2-((3S,5R)-3,4,5-trimethylpiperazin-1-yl)phenyl)-6-oxo-4-(trifluoromethyl)-1,6-dihydropyridine-3-carboxamide] | able to effectively degrade WDR5
10 | Cc1ncsc1-c1ccc(CNC(=O)[C@@H]2C[C@@H](O)CN2C(=O)[C@@H](NC(=O)COCC(=O)NCCN2CCN(Cc3ccc(F)c(-c4ccc(N5C[C@@H](C)N(C)[C@@H](C)C5)c(NC(=O)c5c[nH]c(=O)cc5C(F)(F)F)c4)c3)CC2)C(C)(C)C)cc1 [XF078-1, N-(2′-fluoro-5′-((4-(2-(2-(2-(((S)-1-((2S,4R)-4-hydroxy-2-((4-(4-methylthiazol-5-yl)benzyl)carbamoyl)pyrrolidin-1-yl)-3,3-dimethyl-1-oxobutan-2-yl)amino)-2-oxoethoxy)acetamido)ethyl)piperazin-1-yl)methyl)-4-((3S,5R)-3,4,5-trimethylpiperazin-1-yl)-[1,1′-biphenyl]-3-yl)-6-oxo-4-(trifluoromethyl)-1,6-dihydropyridine-3-carboxamide] | able to effectively degrade WDR5
11 | C[C@@H]1CN(c2ccc(-c3cc(CN4CCN(CCNC(=O)CCCCNc5cccc6c5C(=O)N(C5CCC(=O)NC5=O)C6=O)CC4)ccc3F)cc2NC(=O)c2c[nH]c(=O)cc2C(F)(F)F)C[C@H](C)N1C (stereo partly drawn) [XF078-21, N-(5′-((4-(2-(5-((2-(2,6-dioxopiperidin-3-yl)-1,3-dioxoisoindolin-4-yl)amino)pentanamido)ethyl)piperazin-1-yl)methyl)-2′-fluoro-4-((3S,5R)-3,4,5-trimethylpiperazin-1-yl)-[1,1′-biphenyl]-3-yl)-6-oxo-4-(trifluoromethyl)-1,6-dihydropyridine-3-carboxamide] | able to effectively degrade WDR5
